The values that follow come from patent US4252795A, “N-substituted dimeric cyclopeptide derivatives and preparation thereof” (Ayerst McKenna and Harrison Inc., priority 1978, dated 1981).

The subject of one test is Klebsiella pneumoniae. In words: serial broth dilution, growth inhibition. Type of test: cell-based. As to conditions: nutrient broth, incubated at 37° C. for 2 days, examined for presence of growth. As to the method:
(§1) Grove and W. A. Randall in "Assay Methods of Antibiotics", Med. Encycl. Inc., [New York] 955. […] 289.
(§2) For example, by employing a test like the serial broth dilution, see Grove and Randall, cited above, in which dilutions of the compounds of this invention in nutrient broth are inoculated with the microorganisms or fungi, described above, incubated at 37° C. for 2 days, respectively, and examined for the presence of growth, it may be shown that the preferred compounds N'N'-dicyclohexyl-α,α'-diisopropyl-2,5,8,11,14,17-hexaoxo-1,4,7,10,13,16-hexaazacyclooctadecane-1,10-diacetamide, isomer L, (Example 1), N'N'-dicyclohexyl-α,α'-diisopropyl-2,5,8,11,14,17-hexaoxo-1,4,7,10,13,16-hexaazacyclooctadecane-1,10-diacetamide, isomer M, (Example 1), and α,α'-diphenyl-N'N'-dicyclohexyl-2,5,8,11,14,17-hexaoxo-1,4,7,10,13,16-hexaazacyclooctadecane-1,10-diacetamide, isomer L, (Example 1) are able to inhibit growth totally in this system of Klebsiella pneumoniae and Serratia marcescens at a concentration of 100 mcg/ml.
(In general: Broth dilution looks for growth in wells or tubes with falling amounts of substance.)

For another test, the system named is Serratia marcescens. In words: serial broth dilution, growth inhibition. It counts as cell-based. As to conditions: nutrient broth, incubated at 37° C. for 2 days, examined for presence of growth. How it is done: as §1, §2

For the compound `CC(C)C(C(=O)NC1CCCCC1)N1CC(=O)NCC(=O)NCC(=O)N(C(C(=O)NC2CCCCC2)C(C)C)CC(=O)NCC(=O)NCC1=O` (stereo not drawn) [N,N'-Dicyclohexyl-α,α'-diisopropyl-2,5,8,11,14,17-hexaoxo-1,4,7,10,13,16-hexaazacyclooctadecane-1,10-diacetamide], the “concentration able to inhibit growth totally” value in the test with Klebsiella pneumoniae and in the test with Serratia marcescens was 100 µg/mL each time.

Turning to `O=C1CNC(=O)CN(C(C(=O)NC2CCCCC2)c2ccccc2)C(=O)CNC(=O)CNC(=O)CN(C(C(=O)NC2CCCCC2)c2ccccc2)C(=O)CN1` (stereo not drawn) [α,α'-diphenyl-N,N'-dicyclohexyl-2,5,8,11,14,17-hexaoxo-1,4,7,10,13,16-hexaazacyclooctadecane-1,10-diacetamide], the “concentration able to inhibit growth totally” value in the test with Klebsiella pneumoniae and with Serratia marcescens was 100 µg/mL each time.
